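Cultured in 96-well plates, cells were exposed to test compound for 48 hours across five concentrations. At the TGI there is no net growth.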
Columns and labels:
Experiment in all cases: NCI-60 cell line screen, 48 h
KM12 colon = test system: KM12 colon
SNB-19 CNS = test system: SNB-19 CNS
SF-295 CNS = test system: SF-295 CNS
HCC-2998 colon = test system: HCC-2998 colon
UO-31 renal = test system: UO-31 renal
SR leukemia = test system: SR leukemia
MOLT-4 leukemia = test system: MOLT-4 leukemia
M14 melanoma = test system: M14 melanoma
NCI-H522 lung = test system: NCI-H522 lung
CCRF-CEM leukemia = test system: CCRF-CEM leukemia
OVCAR-8 ovarian = test system: OVCAR-8 ovarian
RPMI-8226 leukemia = test system: RPMI-8226 leukemia
DLD-1 colon = test system: DLD-1 colon
786-0 renal = test system: 786-0 renal
SK-MEL-5 melanoma = test system: SK-MEL-5 melanoma
M19-MEL melanoma = test system: M19-MEL melanoma
A549 NSCLC = test system: A549 NSCLC
SK-MEL-2 melanoma = test system: SK-MEL-2 melanoma
HT29 colon = test system: HT29 colon
HOP-18 NSCLC = test system: HOP-18 NSCLC
SNB-78 CNS = test system: SNB-78 CNS
SN12C renal = test system: SN12C renal
HOP-62 NSCLC = test system: HOP-62 NSCLC
LXFL 529 NSCLC = test system: LXFL 529 NSCLC
XF 498 CNS = test system: XF 498 CNS
SK-OV-3 ovarian = test system: SK-OV-3 ovarian
EKVX NSCLC = test system: EKVX NSCLC
IGROV1 ovarian = test system: IGROV1 ovarian
RXF-631 renal = test system: RXF-631 renal
SNB-75 CNS = test system: SNB-75 CNS
A498 renal = test system: A498 renal
U251 CNS = test system: U251 CNS
SF-539 CNS = test system: SF-539 CNS
OVCAR-5 ovarian = test system: OVCAR-5 ovarian
NCI-H460 lung = test system: NCI-H460 lung
SK-MEL-28 melanoma = test system: SK-MEL-28 melanoma
KM20L2 colon = test system: KM20L2 colon
HCT-15 colon = test system: HCT-15 colon
NCI-H226 lung = test system: NCI-H226 lung
K-562 leukemia = test system: K-562 leukemia
ACHN renal = test system: ACHN renal
HCT-116 colon = test system: HCT-116 colon
MALME-3M melanoma = test system: MALME-3M melanoma
UACC-257 melanoma = test system: UACC-257 melanoma
RXF 393 renal = test system: RXF 393 renal
SF-268 CNS = test system: SF-268 CNS
HL-60(TB) leukemia = test system: HL-60(TB) leukemia
LOX IMVI melanoma = test system: LOX IMVI melanoma
OVCAR-4 ovarian = test system: OVCAR-4 ovarian
DMS 114 small cell lung = test system: DMS 114 small cell lung
UACC-62 melanoma = test system: UACC-62 melanoma
OVCAR-3 ovarian = test system: OVCAR-3 ovarian
TK-10 renal = test system: TK-10 renal
NCI-H23 lung = test system: NCI-H23 lung
CAKI-1 renal = test system: CAKI-1 renal
HOP-92 NSCLC = test system: HOP-92 NSCLC
SW-620 colon = test system: SW-620 colon
DMS 273 small cell lung = test system: DMS 273 small cell lung
COLO 205 colon = test system: COLO 205 colon

CC(C)(C)C(=O)/C=C/c1cccc(Oc2ccccc2)c1
TGI (KM12 colon): 25.6 µM | TGI (SNB-19 CNS): 30 µM | TGI (SF-295 CNS): 25.8 µM | TGI (HCC-2998 colon): 36.5 µM | TGI (UO-31 renal): 28.8 µM | TGI (SR leukemia): > 100 µM | TGI (MOLT-4 leukemia): 57.1 µM | TGI (M14 melanoma): 34.7 µM | TGI (NCI-H522 lung): 29.8 µM | TGI (CCRF-CEM leukemia): 31 µM | TGI (OVCAR-8 ovarian): 27.8 µM | TGI (RPMI-8226 leukemia): 22.5 µM | TGI (DLD-1 colon): 28.5 µM | TGI (786-0 renal): 30.7 µM | TGI (SK-MEL-5 melanoma): 30.4 µM | TGI (M19-MEL melanoma): 54.2 µM | TGI (A549 NSCLC): 48.8 µM | TGI (SK-MEL-2 melanoma): 27.6 µM | TGI (HT29 colon): 22.1 µM | TGI (HOP-18 NSCLC): 30.2 µM | TGI (SNB-78 CNS): 48.1 µM | TGI (SN12C renal): 27.4 µM | TGI (HOP-62 NSCLC): > 100 µM | TGI (LXFL 529 NSCLC): 33.1 µM | TGI (XF 498 CNS): 32.9 µM | TGI (SK-OV-3 ovarian): > 100 µM | TGI (EKVX NSCLC): 35.9 µM | TGI (IGROV1 ovarian): 78 µM | TGI (RXF-631 renal): > 100 µM | TGI (SNB-75 CNS): 64.6 µM | TGI (A498 renal): 37.1 µM | TGI (U251 CNS): 23.5 µM | TGI (SF-539 CNS): 40.2 µM | TGI (OVCAR-5 ovarian): 32.8 µM | TGI (NCI-H460 lung): 32.5 µM | TGI (SK-MEL-28 melanoma): 34.1 µM | TGI (KM20L2 colon): 28.2 µM | TGI (HCT-15 colon): 40.4 µM | TGI (NCI-H226 lung): 33.4 µM | TGI (K-562 leukemia): 30.1 µM | TGI (ACHN renal): 28.5 µM | TGI (HCT-116 colon): 31 µM | TGI (MALME-3M melanoma): 36.2 µM | TGI (UACC-257 melanoma): 28.4 µM | TGI (RXF 393 renal): 30 µM

Cc1ccc(SSCCCCCS(=O)O)cc1
TGI (KM12 colon): > 100 µM | TGI (SNB-19 CNS): > 100 µM | TGI (SF-268 CNS): 36.1 µM | TGI (HCC-2998 colon): > 100 µM | TGI (UO-31 renal): 67.2 µM | TGI (HL-60(TB) leukemia): 55.8 µM | TGI (SR leukemia): 28.9 µM | TGI (MOLT-4 leukemia): 40.3 µM | TGI (LOX IMVI melanoma): 30.9 µM | TGI (M14 melanoma): > 100 µM | TGI (NCI-H522 lung): 27.9 µM | TGI (OVCAR-4 ovarian): > 100 µM | TGI (CCRF-CEM leukemia): > 100 µM | TGI (DMS 114 small cell lung): 45.2 µM | TGI (RPMI-8226 leukemia): 71.4 µM | TGI (DLD-1 colon): > 100 µM | TGI (UACC-62 melanoma): 49.5 µM | TGI (M19-MEL melanoma): > 100 µM | TGI (SK-MEL-2 melanoma): 59.2 µM | TGI (HT29 colon): > 100 µM | TGI (SNB-78 CNS): 82.1 µM | TGI (SN12C renal): 49 µM | TGI (HOP-62 NSCLC): 56.4 µM | TGI (LXFL 529 NSCLC): 28.5 µM | TGI (XF 498 CNS): 49.6 µM | TGI (SK-OV-3 ovarian): > 100 µM | TGI (EKVX NSCLC): > 100 µM | TGI (RXF-631 renal): > 100 µM | TGI (SNB-75 CNS): 63.1 µM | TGI (OVCAR-3 ovarian): 74.7 µM | TGI (A498 renal): 52 µM | TGI (U251 CNS): 25.7 µM | TGI (TK-10 renal): 75.4 µM | TGI (SF-539 CNS): 30.3 µM | TGI (OVCAR-5 ovarian): > 100 µM | TGI (NCI-H460 lung): > 100 µM | TGI (SK-MEL-28 melanoma): > 100 µM | TGI (K-562 leukemia): > 100 µM | TGI (ACHN renal): > 100 µM | TGI (NCI-H23 lung): 88.9 µM | TGI (HCT-116 colon): 28.4 µM | TGI (MALME-3M melanoma): > 100 µM | TGI (UACC-257 melanoma): > 100 µM | TGI (RXF 393 renal): 43.3 µM

c1ccc2c(CNCCCCCCCCCCCCNCc3cccc4ccccc34)cccc2c1
TGI (KM12 colon): 2.99 µM | TGI (SF-295 CNS): 58.2 µM | TGI (CAKI-1 renal): 4.27 µM | TGI (SF-268 CNS): 4.84 µM | TGI (UO-31 renal): 3.06 µM | TGI (HL-60(TB) leukemia): 3.12 µM | TGI (SR leukemia): 2.69 µM | TGI (MOLT-4 leukemia): 2.92 µM | TGI (LOX IMVI melanoma): 2.52 µM | TGI (M14 melanoma): 3.29 µM | TGI (NCI-H522 lung): 3.35 µM | TGI (OVCAR-4 ovarian): 3.05 µM | TGI (CCRF-CEM leukemia): 3.2 µM | TGI (OVCAR-8 ovarian): 3.13 µM | TGI (RPMI-8226 leukemia): 2.55 µM | TGI (DLD-1 colon): 3.31 µM | TGI (UACC-62 melanoma): 3.35 µM | TGI (786-0 renal): 3.23 µM | TGI (SK-MEL-5 melanoma): 3.27 µM | TGI (M19-MEL melanoma): 3.22 µM | TGI (A549 NSCLC): 3.37 µM | TGI (SK-MEL-2 melanoma): 2.93 µM | TGI (HT29 colon): 3.03 µM | TGI (HOP-92 NSCLC): 3.66 µM | TGI (HOP-18 NSCLC): 9.56 µM | TGI (SNB-78 CNS): 3.41 µM | TGI (SN12C renal): 13.6 µM | TGI (SW-620 colon): 3.2 µM | TGI (HOP-62 NSCLC): 4.56 µM | TGI (LXFL 529 NSCLC): 3.23 µM | TGI (XF 498 CNS): 3.11 µM | TGI (DMS 273 small cell lung): > 100 µM | TGI (SK-OV-3 ovarian): 26.5 µM | TGI (EKVX NSCLC): 9.59 µM | TGI (IGROV1 ovarian): 3.39 µM | TGI (SNB-75 CNS): 3.21 µM | TGI (OVCAR-3 ovarian): 3.84 µM | TGI (A498 renal): 19.7 µM | TGI (U251 CNS): 3.17 µM | TGI (TK-10 renal): 4.74 µM | TGI (SF-539 CNS): 3 µM | TGI (OVCAR-5 ovarian): 2.94 µM | TGI (NCI-H460 lung): 2.95 µM | TGI (SK-MEL-28 melanoma): 3.38 µM | TGI (KM20L2 colon): 3.37 µM | TGI (HCT-15 colon): 3.08 µM | TGI (NCI-H226 lung): 4.57 µM | TGI (K-562 leukemia): 2.11 µM | TGI (ACHN renal): 3.7 µM | TGI (NCI-H23 lung): 2.89 µM | TGI (HCT-116 colon): 2.95 µM | TGI (MALME-3M melanoma): 3.66 µM | TGI (COLO 205 colon): > 100 µM | TGI (UACC-257 melanoma): 3.17 µM | TGI (RXF 393 renal): 2.66 µM

Source: PubChem BioAssay (NCI)
